Test results as given in PubChem BioAssay AID2060333 (Molecular Pharmacology Branch, DTP, NCI, 2025).
pIC50: −log10 of the molar value.

System: 845751-090-R-J2-PDC tumor spheroid viability
Test: Anticancer human tumor 845751-090-R-J2-PDC patient-derived head and neck squamous carcinoma cell line growth inhibition [IpAb]
Conditions: spheroids with HUVEC and MSC; for pIC50: curve of first compound; for viability, T/C: stronger effect = lower value; active = viability on the fitted dose curve at most 10% of control; inactive = the rest
Summary of the method: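 Combinations with ipatasertib or abemaciclib were tested on tumour spheroids holding HUVEC (25%) and MSC (15%) alongside 60% malignant cells. Top concentration was at or near clinical Cmax (10 microM if undefined), descending in half-log steps.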

[1] = second compound 0.1 µM, first compound 0.0316 µM
[2] = second compound 0.1 µM, first compound 0.1 µM
[3] = second compound 0.316 µM, first compound 0.0316 µM
[4] = second compound 0.316 µM, first compound 0.1 µM
[5] = second compound 1 µM, first compound 0.0316 µM
[6] = second compound 1 µM, first compound 0.1 µM
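Note: spheroids exposed to compounds for 7 days before readout.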
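Throughout, for viability, T/C: CTG3D luminescence normalised so that 100% = DMSO vehicle control.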

CC(C)(C)c1cnc(CSc2cnc(NC(=O)C3CCNCC3)s2)o1 + CCN1CCN(Cc2ccc(Nc3ncc(F)c(-c4cc(F)c5nc(C)n(C(C)C)c5c4)n3)nc2)CC1
active: viability, T/C (second compound 0.01 µM, first compound 0.3 µM) 1.28% | viability, T/C (second compound 0.01 µM, first compound 0.949 µM) 1.21% | viability, T/C (second compound 0.01 µM, first compound 3 µM) 1.79% | viability, T/C (second compound 0.0316 µM, first compound 0.3 µM) 1.59% | viability, T/C (second compound 0.0316 µM, first compound 0.949 µM) 0.68% | viability, T/C (second compound 0.0316 µM, first compound 3 µM) 0.88% | viability, T/C (second compound 0.1 µM, first compound 0.3 µM) 1.77% | viability, T/C (second compound 0.1 µM, first compound 0.949 µM) 0.43% | viability, T/C (second compound 0.1 µM, first compound 3 µM) 0.69% | viability, T/C (second compound 0.316 µM, first compound 0.3 µM) 0.79% | viability, T/C (second compound 0.316 µM, first compound 0.949 µM) 0.67% | viability, T/C (second compound 0.316 µM, first compound 3 µM) 0.6% | viability, T/C (second compound 1 µM, first compound 0.0949 µM) 3.89% | viability, T/C (second compound 1 µM, first compound 0.3 µM) 2.43% | viability, T/C (second compound 1 µM, first compound 0.949 µM) 1.4% | viability, T/C (second compound 1 µM, first compound 3 µM) 0.76%
7.29: pIC50 (second compound 0.1 µM)
7.15: pIC50 (second compound 0.0316 µM)
7.44: pIC50 (second compound 0.316 µM)
7.42: pIC50 (second compound 1 µM)
inactive: viability, T/C (second compound 0.01 µM, first compound 0.00949 µM) 112% | viability, T/C (second compound 0.01 µM, first compound 0.03 µM) 91.9% | viability, T/C (second compound 0.01 µM, first compound 0.0949 µM) 55% | viability, T/C (second compound 0.0316 µM, first compound 0.00949 µM) 92.8% | viability, T/C (second compound 0.0316 µM, first compound 0.03 µM) 102% | viability, T/C (second compound 0.0316 µM, first compound 0.0949 µM) 34.5% | viability, T/C (second compound 0.1 µM, first compound 0.00949 µM) 90.5% | viability, T/C (second compound 0.1 µM, first compound 0.03 µM) 69.6% | viability, T/C (second compound 0.1 µM, first compound 0.0949 µM) 27.7% | viability, T/C (second compound 0.316 µM, first compound 0.00949 µM) 76% | viability, T/C (second compound 0.316 µM, first compound 0.03 µM) 57.9% | viability, T/C (second compound 0.316 µM, first compound 0.0949 µM) 11.5% | viability, T/C (second compound 1 µM, first compound 0.00949 µM) 62% | viability, T/C (second compound 1 µM, first compound 0.03 µM) 63.1%
7.01: pIC50 (second compound 0.01 µM)

Cc1nc(NC(=O)N2CCCC2C(N)=O)sc1-c1ccnc(C(C)(C)C(F)(F)F)c1 (stereo not given) + CC(C)NCC(C(=O)N1CCN(c2ncnc3c2C(C)CC3O)CC1)c1ccc(Cl)cc1
inactive: viability, T/C [1] 49.2% | viability, T/C [2] 54% | viability, T/C (second compound 0.1 µM, first compound 0.316 µM) 27.6% | viability, T/C (second compound 0.1 µM, first compound 1 µM) 19.2% | viability, T/C (second compound 0.1 µM, first compound 3.16 µM) 15.5% | viability, T/C (second compound 0.1 µM, first compound 10 µM) 8.29% | viability, T/C [3] 24.5% | viability, T/C [4] 30.9% | viability, T/C (second compound 0.316 µM, first compound 0.316 µM) 20.9% | viability, T/C (second compound 0.316 µM, first compound 1 µM) 15.6% | viability, T/C (second compound 0.316 µM, first compound 3.16 µM) 13.1% | viability, T/C [5] 17.4% | viability, T/C [6] 21.7% | viability, T/C (second compound 1 µM, first compound 0.316 µM) 18% | viability, T/C (second compound 1 µM, first compound 1 µM) 13.8% | viability, T/C (second compound 1 µM, first compound 3.16 µM) 10.6% | viability, T/C (second compound 3.16 µM, first compound 0.0316 µM) 16% | viability, T/C (second compound 3.16 µM, first compound 0.1 µM) 15.8% | viability, T/C (second compound 3.16 µM, first compound 0.316 µM) 14.1% | viability, T/C (second compound 3.16 µM, first compound 1 µM) 12.7% | viability, T/C (second compound 3.16 µM, first compound 3.16 µM) 9.92% | viability, T/C (second compound 10 µM, first compound 0.0316 µM) 13.9% | viability, T/C (second compound 10 µM, first compound 0.1 µM) 13.1% | viability, T/C (second compound 10 µM, first compound 0.316 µM) 17.2% | viability, T/C (second compound 10 µM, first compound 1 µM) 12%
> 7.50: pIC50 (second compound 0.316 µM) | pIC50 (second compound 1 µM) | pIC50 (second compound 3.16 µM) | pIC50 (second compound 10 µM)
active: viability, T/C (second compound 0.316 µM, first compound 10 µM) 7.03% | viability, T/C (second compound 1 µM, first compound 10 µM) 7.97% | viability, T/C (second compound 3.16 µM, first compound 10 µM) 7.77% | viability, T/C (second compound 10 µM, first compound 3.16 µM) 9.58% | viability, T/C (second compound 10 µM, first compound 10 µM) 5.74%
6.97: pIC50 (second compound 0.1 µM)

Cn1ncnc1[C@H]1c2n[nH]c(=O)c3cc(F)cc(c23)N[C@@H]1c1ccc(F)cc1 + CCN1CCN(Cc2ccc(Nc3ncc(F)c(-c4cc(F)c5nc(C)n(C(C)C)c5c4)n3)nc2)CC1
7.07: pIC50 (second compound 0.316 µM)
inactive: viability, T/C (second compound 0.01 µM, first compound 0.000316 µM) 71.6% | viability, T/C (second compound 0.01 µM, first compound 0.001 µM) 94% | viability, T/C (second compound 0.01 µM, first compound 0.00316 µM) 91.8% | viability, T/C (second compound 0.01 µM, first compound 0.01 µM) 83.1% | viability, T/C (second compound 0.01 µM, first compound 0.0316 µM) 92.1% | viability, T/C (second compound 0.01 µM, first compound 0.1 µM) 70.9% | viability, T/C (second compound 0.0316 µM, first compound 0.000316 µM) 74.7% | viability, T/C (second compound 0.0316 µM, first compound 0.001 µM) 81.8% | viability, T/C (second compound 0.0316 µM, first compound 0.00316 µM) 69.7% | viability, T/C (second compound 0.0316 µM, first compound 0.01 µM) 78.8% | viability, T/C (second compound 0.0316 µM, first compound 0.0316 µM) 63.5% | viability, T/C (second compound 0.0316 µM, first compound 0.1 µM) 45% | viability, T/C (second compound 0.1 µM, first compound 0.000316 µM) 71.9% | viability, T/C (second compound 0.1 µM, first compound 0.001 µM) 66.3% | viability, T/C (second compound 0.1 µM, first compound 0.00316 µM) 71.3% | viability, T/C (second compound 0.1 µM, first compound 0.01 µM) 69.7% | viability, T/C [1] 75.7% | viability, T/C [2] 59.9% | viability, T/C (second compound 0.316 µM, first compound 0.000316 µM) 63.6% | viability, T/C (second compound 0.316 µM, first compound 0.001 µM) 69.4% | viability, T/C (second compound 0.316 µM, first compound 0.00316 µM) 72.8% | viability, T/C (second compound 0.316 µM, first compound 0.01 µM) 55% | viability, T/C [3] 57.8% | viability, T/C [4] 49.3% | viability, T/C (second compound 1 µM, first compound 0.000316 µM) 58.8% | viability, T/C (second compound 1 µM, first compound 0.001 µM) 84.5% | viability, T/C (second compound 1 µM, first compound 0.00316 µM) 57.7% | viability, T/C (second compound 1 µM, first compound 0.01 µM) 57.1% | viability, T/C [5] 46.4% | viability, T/C [6] 37.1%
7.71: pIC50 (second compound 1 µM)
7.14: pIC50 (second compound 0.0316 µM)
< 7.00: pIC50 (second compound 0.01 µM) | pIC50 (second compound 0.1 µM)
